Measurements taken from patent US20220177453A1, “CRYSTALLIZATION OF SMAC MIMIC USED AS IAP INHIBITOR AND PREPARATION METHOD THEREOF” (CHIA TAI TIANQING PHARMACEUTICAL GROUP CO., LTD., priority 2019, published 2022).

Experiments:
[1] = test system: MDA-MB-231 triple negative breast cancer CDX; assay: In vivo efficacy study 2, MDA-MB-231 triple negative breast cancer CDX model; parameters: species or system BALB/c nude mice
Protocol: (§1) In vivo efficacy study was conducted on BALB/c nude mice by subcutaneously implanting human tumor cell line-derived xenograft (CDX) from MDA-MB-231 triple negative breast cancer patients
(§2) BALB/c nude mice, female, aged 6-8 weeks, about 18-22 g, were kept in a special pathogen-free environment and in separate ventilated cages (3 mice per cage). All cages, bedding and water were disinfected prior to use. All animals had free access to standard certified commercial laboratory diets. 48 mice were purchased from Shanghai BK Laboratory Animal Co., LTD. for the study. Each mouse was implanted subcutaneously in the right flank with tumor cells (10×10^6 in 0.2 mL of phosphate buffer) for tumor growth. The mice were administered when the mean tumor volume reached about 110 mm^3. The test compounds were administered orally at a daily dose of 30 mg/kg. Tumor volume was measured every 3 days with a two-dimensional caliper, and the volume was measured in mm^3 and calculated according to the following formula: V=0.5×a×b^2, where a and b are the long and short diameters, respectively, of the tumor. Anti-tumor efficacy was determined by dividing the mean tumor increase volume of compound-treated animals by the mean tumor increase volume of untreated animals

XIAP BIR3 = target: T1, XIAP BIR3 (Homo sapiens, UniProt P98170); assay: XIAP BIR3 fluorescence polarization binding assay; conditions: 5 nM probe, 30 nM XIAP BIR3
T1 construct: isolated BIR3 domain of XIAP (amino acids 255-356; XIAP BIR3); His; GST; purchased RBC APT-11-374; host or cells: E. coli
Protocol: (§3) Buffer system (a buffer for cIAP1 BIR3 or XIAP BIR3): 0.1 mollL potassium phosphate, pH 7.5, 0.1% bovine serum albumin, 0.005% Triton X-100 and 1% dimethyl sulfoxide.
(§4) Probe: ARPFAQ-K(5-FAM)-NH2.
(§5) XIAP-BIR3-his: RBC (Cat# APT-11-374), isolated BIR3 domain of XIAP (amino acids 255-356; XIAP BIR3) expressed by E. coli as GST-fusion protein. Condition: 5 nM ARPFAQ-K(5-FAM)-NH2, 20 nM cIAP1 BIR3 and 30 nM XIAP BIR3.
(§6) Firstly, fresh buffer of cIAP1 BIR3 or XIAP BIR3 was prepared, and mixed with 2 folds of cIAP1 BIR3 or XIAP BIR3 solution. A solution of test compound completely dissolved in 100% DMSO via ultrasonication was added to the buffer containing cIAP1 BIR3 or XIAP BIR3. The mixture was added with 2 folds of probes, mixed and incubated for 60 min in the dark at room temperature. Fluorescence polarization was measured and mP value was calculated, finally giving an IC50 value.

[2] = test system: MDA-MB-231 triple negative breast cancer CDX; assay: In vivo efficacy study 1, MDA-MB-231 triple negative breast cancer CDX model; parameters: species or system BALB/c nude mice
Protocol: as §1
as §2, with “with cancer” for “with tumor”, “(10×10^6 cells” for “(10×10^6”, “phosphate buffered saline)” for “phosphate buffer)”, “about 147” for “about 110”

cIAP1 BIR3 = target: T2, cIAP1 BIR3 (Homo sapiens, UniProt Q13490); assay: cIAP1 BIR3 fluorescence polarization binding assay; conditions: 5 nM probe, 20 nM cIAP1 BIR3
T2 construct: isolated BIR3 domain of human cIAP1 (amino acids 258-363); cIAP1; His; GST; purchased RBC APT-11-370; host or cells: E. coli
Text: as §3, §4
cIAP1-BIR3-his: RBC (Cat# APT-11-370), isolated BIR3 domain of human cIAP1 (amino acids 258-363; cIAP1
BIR3) expressed by E. coli as GST-fusion protein.
as §5, §6

[3] = Long-term accelerated stability test; assay type: physicochemical
Protocol: Long-term accelerated test: 22 parts of crystalline form A of the compound of formula (I) each containing 1 50 g were prepared. The samples were separately put into a double-layer LDPE bag with each layer of LDPE bag sealed separately. The bag was then put into an aluminum foil bag for heat sealing. At inspection time points, the corresponding test samples were taken out, covered with bottle caps. 0-day samples were thawed to room temperature and directly analyzed. Approximately 10 mg of the test article was subjected to XRPD. The compounds were placed in the following conditions and samples were taken at different time points for determining their properties, XRPD pattern, content and related substances.

[4] = Hygroscopicity study (DVS); assay type: physicochemical
Protocol: Instrument model: SMS DVS Advantage
Test conditions: crystalline form A of the compound of formula (I) (10-15 mg) was placed in a DVS sample tray for testing.
The DVS parameters are as follows: • Temperature: 25° C. • Balancing: dm/dt=0.01%/min (shortest: 10 min, longest: 180 min) • Drying: drying at 0% RH for 120 min • RH (%) measurement gradient: 10% • RH (%) measurement gradient range: 0%-90%-0%

[5] = Influencing factor (high temperature, high humidity) and irradiation stability tests; assay type: physicochemical

T2 sequence (Q13490 258-363): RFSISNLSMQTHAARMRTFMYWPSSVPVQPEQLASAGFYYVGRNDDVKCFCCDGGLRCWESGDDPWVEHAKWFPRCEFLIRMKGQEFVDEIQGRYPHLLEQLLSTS
T1 sequence (P98170 255-356): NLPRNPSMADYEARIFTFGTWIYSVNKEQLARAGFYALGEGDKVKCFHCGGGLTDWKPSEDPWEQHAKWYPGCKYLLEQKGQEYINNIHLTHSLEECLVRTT

SMILES: CN[C@@H](C)C(=O)N[C@H](C(=O)N1CCC[C@H]1Cn1cc(C(C)=O)c2cc(Cl)ccc21)C1CCCCC1 [Compound of formula (I)]
- Tumor volume (mm^3) ([1]; 5 days, 30 mg/kg oral daily): 111 mm^3
- Tumor volume (mm^3) ([1]; 12 days, 30 mg/kg oral daily): 86 mm^3
- Tumor volume (mm^3) ([1]; 20 days, 30 mg/kg oral daily): 177 mm^3
- Tumor volume (mm^3) ([1]; Day 0, 30 mg/kg oral daily): 110 mm^3
- IC50 (XIAP BIR3): 29.9 nM
- Tumor volume (mm^3) ([2]; 6 days, 30 mg/kg oral daily): 214 mm^3
- Tumor volume (mm^3) ([2]; 13 days, 30 mg/kg oral daily): 282 mm^3
- Tumor volume (mm^3) ([2]; 20 days, 30 mg/kg oral daily): 810 mm^3
- Tumor volume (mm^3) ([2]; Day 0, 30 mg/kg oral daily): 147 mm^3
- IC50 (cIAP1 BIR3): 5 nM

SMILES: CN[C@@H](C)C(=O)N[C@H](C(=O)N1CCC[C@H]1Cn1cc(C(C)=O)c2cc(Cl)ccc21)C1CCCCC1
- Content of crystalline form A (%) ([3]; 25° C.-60% RH-3 months): 98%
- Impurity content (%) ([3]; 25° C.-60% RH-3 months): 1.16%
- Content of crystalline form A (%) ([3]; 25° C.-60% RH-6 months): 99.5%
- Impurity content (%) ([3]; 25° C.-60% RH-6 months): 1.12%
- Content of crystalline form A (%) ([3]; 25° C.-60% RH-9 months): 98.2%
- Impurity content (%) ([3]; 25° C.-60% RH-9 months): 1.22%
- Content of crystalline form A (%) ([3]; 25° C.-60% RH-12 months): 100.2%
- Impurity content (%) ([3]; 25° C.-60% RH-12 months): 1.09%
- Content of crystalline form A (%) ([3]; 40° C.-75% RH-1 month): 99.3%
- Impurity content (%) ([3]; 40° C.-75% RH-1 month): 1.2%
- Content of crystalline form A (%) ([3]; 40° C.-75% RH-2 months): 98.1%
- Impurity content (%) ([3]; 40° C.-75% RH-2 months): 1.19%
- Content of crystalline form A (%) ([3]; 40° C.-75% RH-3 months): 97.8%
- Impurity content (%) ([3]; 40° C.-75% RH-3 months): 1.13%
- Content of crystalline form A (%) ([3]; 40° C.-75% RH-6 months): 98.5%
- Impurity content (%) ([3]; 40° C.-75% RH-6 months): 1.12%
- Content of crystalline form A (%) ([3]; Day 0): 98.2%
- Impurity content (%) ([3]; Day 0): 1.19%
- hygroscopic weight gain ([4]; 25° C. and 80% RH): 0.72%
- Classification of hygroscopicity ([4]; weight gain at 25° C./80% RH): slightly hygroscopic
- Content of crystalline form A (%) ([5]; 25° C.-92.5% RH-5 days): 99.1%
- Impurity content (%) ([5]; 25° C.-92.5% RH-5 days): 1.16%
- Content of crystalline form A (%) ([5]; 25° C.-92.5% RH-10 days): 98.8%
- Impurity content (%) ([5]; 25° C.-92.5% RH-10 days): 1.13%
- Content of crystalline form A (%) ([5]; 25° C.-92.5% RH-30 days): 99.2%
- Impurity content (%) ([5]; 25° C.-92.5% RH-30 days): 1.19%
- Content of crystalline form A (%) ([5]; 60° C.-5 days): 99%
- Impurity content (%) ([5]; 60° C.-5 days): 1.16%
- Content of crystalline form A (%) ([5]; 60° C.-10 days): 98.2%
- Impurity content (%) ([5]; 60° C.-10 days): 1.14%
- Content of crystalline form A (%) ([5]; 60° C.-30 days): 99.1%
- Impurity content (%) ([5]; 60° C.-30 days): 1.19%
- Content of crystalline form A (%) ([5]; Day 0): 98.2%
- Impurity content (%) ([5]; Day 0): 1.19%
- Content of crystalline form A (%) ([5]; Irradiation-5 days): 97.8%
- Impurity content (%) ([5]; Irradiation-5 days): 1.12%
- Content of crystalline form A (%) ([5]; Irradiation-10 days): 99.3%
- Impurity content (%) ([5]; Irradiation-10 days): 1.13%
- Crystalline form stability by XRPD versus day 0 ([5]; the various test conditions of Tables 4 and 5): stable
